Measurements reported in patent US20130337564A1, “Treatment of Pluripotent Cells” (Janssen Biotech, Inc., priority 2012, published 2013).

Key:
Type in all cases: cell-based
[1] = tested on: HNF-3beta expression in human embryonic stem cells (H9 line); assay: High content screening assay: HNF-3beta protein expression (differentiation); conditions: for HNF3β Expression, Fold over Wnt 3a/AA control: 10 μM test compound with 100 ng/ml activin A on days 1-2, H9, total intensity by IN Cell Analyzer, strong and moderate hits; for HNF-3b Expression Fold over Wnt 3a/AA control: total intensity normalised to Wnt 3a/AA control
In short: (§1)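 H9 hESCs on MATRIGEL treated days 1-2 with 10 μM compound in DMEM:F12, 0.5% FCS, 100 ng/ml activin A; days 3-4 with 2% FCS plus activin A without compound. Fixed cells immunostained for Sox17 or HNF-3beta with Draq5 nuclear counterstain. Cell number and staining intensity quantified by high-content imaging, 12 fields/well.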

[2] = tested on: cells expressing pluripotency markers derived from human embryonic stem cells; assay: MTS viability (toxicity) assay of cells expressing pluripotency markers; parameters: Raw data (duplicate), first replicate / Average: unit not given here; conditions: for viability at 10 µM: Homo sapiens, Embryonic stem cell; for viability at 10 µM / % Control: viability of cells expressing pluripotency markers, relative to control; for Raw data (duplicate), first replicate / Raw data (duplicate), second replicate: MTS viability assay raw reading; for Raw data (duplicate), first replicate: replicate 1; for Raw data (duplicate), second replicate: replicate 2; for Average: average of duplicate MTS raw readings; for Average of raw data (duplicate), optical density at 490 nm: MTS on day 4
In short: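 A GSK-3B inhibitor library was screened for toxicity to pluripotency-marker-expressing cells. Compound was given in DMEM:F12 with 0.5% FCS and 100 ng/ml Activin A for two days, then replaced by medium with 2% FCS and Activin A. On day 4, MTS absorbance at 490 nm gave viability as percent of Activin A plus Wnt3a control wells.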

[3] = tested on: Sox17 expression in human embryonic stem cells (H9 line); assay: High content screening assay: Sox17 protein expression (differentiation); conditions: for fold induction at 10 µM: Homo sapiens, Embryonic stem cell, read-out: SOX17 Expression, Fold over Wnt 3a/AA control; for fold induction at 10 µM / SOX17 Expression, Fold over Wnt 3a/AA control: 10 μM test compound with 100 ng/ml activin A on days 1-2, H9, total intensity by IN Cell Analyzer, strong and moderate hits; for SOX-17 Expression Fold over Wnt 3a/AA control: total intensity normalised to Wnt 3a/AA control
In short: as §1

SMILES	HNF-3b Expression Total Intensity [1]	viability at 10 µM [2] [%]	Raw data (duplicate), first replicate [2]	Raw data (duplicate), second replicate [2]	Average [2]	Average of raw data (duplicate), optical density at 490 nm ([2]; cmpd conc 2.5 μM)	Average of raw data (duplicate), optical density at 490 nm ([2]; cmpd conc 5 μM)	Average of raw data (duplicate), optical density at 490 nm ([2]; cmpd conc 10 μM)	fold induction at 10 µM [3]	SOX-17 Expression Total Intensity [3]	HNF3β Expression, Fold over Wnt 3a/AA control [1]	HNF-3b Expression Fold over Wnt 3a/AA control [1] [fold]	% Control [2] [%]	SOX17 Expression, Fold over Wnt 3a/AA control [3]	SOX-17 Expression Fold over Wnt 3a/AA control [3] [fold]
CN(C)c1ccc(-n2cc(C3=C(c4nn(CCO)c5ccccc45)C(=O)NC3=O)c3cc(Cl)ccc32)cn1 [Compound 148, 3-{5-Chloro-1-[6-(dimethylamino)pyridin-3-yl]-1H-indol-3-yl}-4-[1-(2-hydroxyethyl)-1H-indazol-3-yl]-1H-pyrrole-2,5-dione]	248855000	88.8	0.753	0.687	0.720	0.2669	0.1559	0.1537	0.719	699160000					
OCCC#Cc1nc(-c2ccc(F)cc2)c(-c2ccncc2)n1CCCc1ccccc1 [Compound 158, 4-[4-(4-Fluorophenyl)-1-(3-phenylpropyl)-5-pyridin-4-yl-1H-imidazol-2-yl]but-3-yn-1-ol]	269025000	77.7	0.629	0.659	0.644	0.7971	0.8183	0.6052		324450000					
O=C1NC(=O)C2=C1c1cn(c3ccccc13)CCOCCOCCOCCn1cc2c2ccccc21 [Compound 163, 6,7,9,10,12,13,15,16-Octahydro-23H-5,26:17,22-di(metheno)dibenzo[k,q]pyrrolo[3,4-n][1,4,7,10,19]trioxadiazacyclohenicosine-23,25(24H)-dione]	85245671		0.678	0.661	0.670					28506437	3.1115 Fold over Wnt 3a/AA control	3.1115	80.8	0.9266 Fold over Wnt 3a/AA control	0.9266
COc1ccccc1C1=C(c2cn(-c3cccnc3)c3ccccc23)C(=O)NC1=O [Compound 216, 3-[2-(Methyloxy)phenyl]-4-(1-pyridin-3-yl-1H-indol-3-yl)-1H-pyrrole-2,5-dione]	306520000	92.2	0.768	0.724	0.746					252690000					
O=C(Nc1ccc(C(=O)N2CC3CSCCN3Cc3ccccc32)c(Cl)c1)c1cc(Cl)cc(Cl)c1 (stereo not drawn) [Compound 166, 3,5-Dichloro-N-[3-chloro-4-(3,4,12,12a-tetrahydro-1H-[1,4]thiazino[3,4-c][1,4]benzodiazepin-11(6H)-ylcarbonyl)phenyl]benzamide]	10743082	74.8	0.615	0.635	0.625					11388240					
COc1ccccc1C1=C(c2cn(CCCNC(C)=O)c3ncccc23)C(=O)NC1=O [Compound 27, N-[3-(3-{4-[2-(Methyloxy)phenyl]-2,5-dioxo-2,5-dihydro-1H-pyrrol-3-yl}-1H-pyrrolo[2,3-b]pyridin-1-yl)propyl]acetamide]	0	7.2	0.160	0.186	0.173					125443					
O=C1NC(=O)C2=C1c1cn(c3ncccc13)CCOCCOCCOCCOCCOCCn1cc2c2cccnc21 [Compound 168, 10,11,13,14,16,17,19,20,22,23,25,26-Dodecahydro-1H-9,4:27,32-di(metheno)dipyrido[2,3-q:3′,2′-w]pyrrolo[3,4-t][1,4,7,10,13,16,25]pentaoxadiazacycloheptacosine-1,3(2H)-dione]	2584708		0.610	0.628	0.619					2574279		0.0943	73.9		0.0837
CC(C)(O)CCn1nc(C2=C(c3cn(-c4cccnc4)c4ccccc34)C(=O)NC2=O)c2ccccc21 [Compound 223, 3-[1-(3-Hydroxy-3-methylbutyl)-1H-indazol-3-yl]-4-(1-pyridin-3-yl-1H-indol-3-yl)-1H-pyrrole-2,5-dione]	540725000	97.8	0.770	0.786	0.778	0.8427	0.8021	0.7287	1.04	1013360000					
O=C1NC(=O)C(c2cn(CCCO)c3ncccc23)=C1c1cc(Cl)sc1Cl [Compound 18, 3-(2,5-Dichlorothiophen-3-yl)-4-[1-(3-hydroxypropyl)-1H-pyrrolo[2,3-b]pyridin-3-yl]-1H-pyrrole-2,5-dione]	28439	69.9	0.637	0.554	0.595					0					
COc1ccccc1C1=C(c2cn(CCCNC(=O)OC(C)(C)C)c3ncccc23)C(=O)NC1=O [Compound 26, 1,1-Dimethylethyl [3-(3-{4-[2-(methyloxy)phenyl]-2,5-dioxo-2,5-dihydro-1H-pyrrol-3-yl}-1H-pyrrolo[2,3-b]pyridin-1-yl)propyl]carbamate]	15725984	76.4	0.568	0.709	0.639					15714170					
O=C1NC(=O)C2=C1c1cn(c3ccccc13)CCOCCOCCOCCOCCn1cc2c2ccccc21 [Compound 165, 10,11,13,14,16,17,19,20,22,23-Decahydro-1H-9,4:24,29-di(metheno)dibenzo[n,t]pyrrolo[3,4-q][1,4,7,10,13,22]tetraoxadiazacyclotetracosine-1,3(2H)-dione]	149772525		0.690	0.674	0.682					32703235	5.4668 Fold over Wnt 3a/AA control	5.4668	83.3	1.0630 Fold over Wnt 3a/AA control	1.0630
